Source: patent US6914064B2, “1,4-Disubstituted piperazine derivatives useful as uro-selective α1-adrenoceptor blockers” (Ranbaxy Laboratories Limited, priority 2000, dated 2005)

Columns and labels:
[1] = molecular target: T1, α1A adrenoceptor (Rattus norvegicus, UniProt P43140); assay: Receptor binding assay, displacement of [3H]prazosin, rat submaxillary membranes; conditions: for Ki: [3H]prazosin displacement, rat submaxillary membranes, read-out: α1A (Rat submaxillary) Ki; for Selectivity α1B/α1A: ratio of Ki α1B (rat liver) / α1A (rat submaxillary)
T1 construct: from tissue; host or cells: rat submaxillary gland membranes
T1 sequence (P43140 1-466): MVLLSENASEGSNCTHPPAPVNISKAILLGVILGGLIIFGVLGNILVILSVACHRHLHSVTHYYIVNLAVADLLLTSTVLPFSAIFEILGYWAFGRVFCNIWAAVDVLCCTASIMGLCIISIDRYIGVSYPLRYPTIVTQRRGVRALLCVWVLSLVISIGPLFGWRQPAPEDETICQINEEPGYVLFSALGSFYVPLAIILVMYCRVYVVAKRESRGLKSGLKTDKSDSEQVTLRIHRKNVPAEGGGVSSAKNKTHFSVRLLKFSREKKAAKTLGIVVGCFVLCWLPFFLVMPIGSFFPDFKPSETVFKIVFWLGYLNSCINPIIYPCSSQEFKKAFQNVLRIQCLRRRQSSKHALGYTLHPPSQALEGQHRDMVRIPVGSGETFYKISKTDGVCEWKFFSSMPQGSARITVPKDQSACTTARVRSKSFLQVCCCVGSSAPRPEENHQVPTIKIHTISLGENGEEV
Procedure: Receptor binding assays were performed using native α-adrenoceptors.
(§1) Submaxillary glands were isolated immediately after sacrifice. The liver was perfused with buffer (Tris HCl 50 mM, NaCl 100 mM, 10 mM EDTA pH 7.4). The tissues were homogenised in 10 volumes of buffer (Tris HCl 50 mM, NaCl 100 mM, EDTA 10 mM, pH 7.4). The homogenate was filtered through two layers of wet gauze and filtrate was centrifuged at 500 g for 10 min. The supernatant was subsequently centrifuged at 40,000 g for 45 min. The pellet thus obtained was resuspended in the same volume of assay buffer (Tris HCl 50 mM, EDTA 5 mM, pH 7.4) and were stored at −70° C. until the time of assay.
(§2) The membrane homogenates (150-250 μg protein) were incubated in 250 μl of assay buffer (Tris HCl 50 mM, EDTA 5 mM, pH 7.4) at 24-25° C. for 1 h. Non-specific binding was determined in the presence of 300 nM prazosin. The incubation was terminated by vacuum filtration over GF/B fibre filters. The filters were then washed with ice cold 50 mM Tris HCl buffer (pH 7.4). The filtermats were dried and bound radioactivity retained on filters was counted.The IC50 & Kd were estimated by using the non-linear curve fitting program using G Pad Prism software.

[2] = molecular target: T2, α1B adrenoceptor (Rattus norvegicus, UniProt P15823); assay: Receptor binding assay, displacement of [3H]prazosin, rat liver membranes; conditions: [3H]prazosin displacement, rat liver membranes; read-out: α1B (Rat liver) Ki
T2 construct: from tissue; host or cells: rat liver membranes
T2 sequence (P15823 1-515): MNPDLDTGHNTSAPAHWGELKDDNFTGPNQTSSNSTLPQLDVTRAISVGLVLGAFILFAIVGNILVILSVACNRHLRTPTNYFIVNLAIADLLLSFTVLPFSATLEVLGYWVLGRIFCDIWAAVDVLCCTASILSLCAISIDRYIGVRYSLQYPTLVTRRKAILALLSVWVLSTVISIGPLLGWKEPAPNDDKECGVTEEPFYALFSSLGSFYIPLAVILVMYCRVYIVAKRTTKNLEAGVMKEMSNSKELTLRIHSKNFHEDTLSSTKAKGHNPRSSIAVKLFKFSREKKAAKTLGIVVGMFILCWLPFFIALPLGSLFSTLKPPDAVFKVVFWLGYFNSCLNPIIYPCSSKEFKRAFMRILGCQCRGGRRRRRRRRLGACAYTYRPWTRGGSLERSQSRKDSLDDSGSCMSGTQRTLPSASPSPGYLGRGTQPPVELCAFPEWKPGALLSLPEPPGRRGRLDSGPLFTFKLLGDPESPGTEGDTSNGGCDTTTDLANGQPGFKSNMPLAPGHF
Procedure: Receptor binding assays were performed using native α-adrenoceptors. The affinity of different compounds for α1A and α1B adrenoceptor subtypes was evaluated by studying their ability to displace specific [^3H]prazosin binding from the membranes of rat submaxillary and liver respectively (Michel et al, Br J Pharmacol, 98, 883-889 (1989)). The binding assays were performed according to U'Prichard et al. (Eur J Pharmacol, 50:87-89 (1978)) with minor modifications.
as §1
as §2, with “software. The value of inhibition constant Ki was calculated from competitive binding studies by using Cheng & Prusoff equation (Cheng & Prusoff, Biochem Pharmacol, 1973,22: 3099-3108), Ki=IC50/(1+L/Kd) where L is the concentration of [^3H]prazosin used in the particular experiment (Table I).” for “software.”

[3] = molecular target: T3, α1A adrenoceptor (prostate) (Rattus norvegicus, UniProt P43140); assay: In vitro functional study, antagonism of phenylepinephrine-induced contraction of prostate; type: biochemical; conditions: for Selectivity α1A/α1B: functional assays, from pKB values; for Kb: prostate, phenylepinephrine, tested compound at 0.1, 1 and 10 mM, read-out: α Adrenoceptor Subtype (pKB) α1A (converted)
T3 construct: from tissue; host or cells: isolated prostate tissue
T3 sequence (P43140 1-466): T1 sequence (P43140 1-466)
Text: (§3) In order to study selectivity of action of these compounds towards different α-adrenoceptor subtypes, the ability of these compounds to antagonise α1-adrenoceptor agonist induced contractile response on aorta (α1Dprostate (α1A and spleen (α1B was studied. Aorta and spleen tissues were isolated from urethane anaesthetised (1.5 gm/kg) male wistar rats. Isolated tissues were mounted in organ bath containing Krebs Henseleit buffer of following composition (mM): NaCl 118; KCl 4.7; CaCl2 2.5; MgSO4. 7H2O 1.2; NaHCO3 25; KH2PO41.2; glucose 11.5. Buffer was maintained at 37° C. and aereated with a mixture of 95% O2 and 5% CO2. A resting tension of 2 g (aorta) or 1 g (spleen and prostate)was applied to tissues. Contractile response was monitored using a force displacement transducer and recorded on chart recorders. Tissues were allowed to equilibrate for 2 hours. At the end of equilibration period, concentration response curves to norepinephrine (aorta) and phenylepinephrine (spleen and prostate) were obtained in absence and presence of tested compound (at concentration of 0.1,1 and 10 mM). Antagonist affinity was calculated and expressed as pKB vales in Table II.

[4] = molecular target: T4, α1B adrenoceptor (spleen) (Rattus norvegicus, UniProt P15823); assay: In vitro functional study, antagonism of phenylepinephrine-induced contraction of spleen; type: biochemical; conditions: tested compound at 0.1, 1 and 10 mM, read-out: α Adrenoceptor Subtype (pKB) α1B (converted)
T4 construct: Isolated tissues were mounted in organ bath containing Krebs Henseleit buffer; from tissue; host or cells: isolated spleen of male wistar rats
T4 sequence (P15823 1-515): T2 sequence (P15823 1-515)
Text: as §3

[5] = molecular target: T5, α1D adrenoceptor (aorta) (Rattus norvegicus, UniProt P23944); assay: In vitro functional study, antagonism of norepinephrine-induced contraction of aorta; type: biochemical; conditions: tested compound at 0.1, 1 and 10 mM, read-out: α Adrenoceptor Subtype (pKB) α1D (converted)
T5 construct: Isolated tissues were mounted in organ bath containing Krebs Henseleit buffer; from tissue; host or cells: isolated aorta of male wistar rats
T5 sequence (P23944 1-561): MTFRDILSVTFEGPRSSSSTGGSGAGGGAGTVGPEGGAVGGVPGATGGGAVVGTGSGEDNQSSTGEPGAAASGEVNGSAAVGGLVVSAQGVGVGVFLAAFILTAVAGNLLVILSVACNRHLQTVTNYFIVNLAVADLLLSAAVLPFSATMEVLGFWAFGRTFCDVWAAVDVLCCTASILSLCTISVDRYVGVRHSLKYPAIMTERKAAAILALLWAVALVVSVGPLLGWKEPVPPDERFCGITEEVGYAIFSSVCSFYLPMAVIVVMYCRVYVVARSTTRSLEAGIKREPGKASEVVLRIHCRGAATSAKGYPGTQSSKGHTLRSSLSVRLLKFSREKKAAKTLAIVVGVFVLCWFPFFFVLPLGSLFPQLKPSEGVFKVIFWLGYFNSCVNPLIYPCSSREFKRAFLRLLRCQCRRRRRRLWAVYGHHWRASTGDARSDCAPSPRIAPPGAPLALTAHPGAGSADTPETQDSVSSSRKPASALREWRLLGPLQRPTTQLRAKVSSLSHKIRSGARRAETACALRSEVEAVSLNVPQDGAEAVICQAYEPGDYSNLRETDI
Text: as §3

Row | Ki [1] [nM] | Selectivity α1B/α1A [1] | Ki [2] [nM] | Selectivity α1A/α1B [3] | Kb [3] [nM] | Kb [4] [nM] | Kb [5] [nM] | melting point [°C] | SMILES
1 | 3.3 | >151 | > 500 | 54 | 1.26 | 67.6 | 1 | 165 to 166 | CCCCCCOc1ccccc1N1CCN(CCCN2C(=O)C3CC=CCC3C2=O)CC1.Cl (stereo not shown) [Compound 25, 2-[3-{4-(2-n-Hexyloxyphenyl)piperazin-1-yl}propyl]-3a,4,7,7a-tetrahydro-1H-isoindole-1,3(2H)-dione hydrochloride]
2 | 3.45 | 205 | 708 | 18 | 87.1 | 1580 | 33.9 | 219 to 220 | COc1ccccc1N1CCN(C(C)CCN2C(=O)C3CC=CCC3C2=O)CC1.Cl (stereo not shown) [Compound 29, 2-[3-{4-(2-Methoxyphenyl)piperazin-1-yl}-3-methylpropyl]-3a,4,7,7a-tetrahydro-1H-isoindole-1,3(2H)-dione hydrochloride]
